Here are results for 17 compounds from US20230365563A1, “QUINAZOLINE COMPOUND AND APPLICATION THEREOF” (SHANGHAI PHARMACEUTICALS HOLDING CO., LTD., priority 2020, published 2023).

For one experiment, the target named is T1, KRAS-G12D and SOS1 (Homo sapiens, UniProt P01116, G12D).
T1 construct: purchased
As to the kind of experiment: Inhibition of KRAS-G12D/SOS1 binding (Cisbio binding kit, 665/615 ratio), Effect Embodiment A. Conditions: read-out: GTP-KRAS-G12D:SOS1 IC50. In a few lines:
(§1)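 Compounds underwent 3-fold dilution from their storage solutions (11 points), were transferred to assay wells in duplicate with DMSO held at 1% final, and were briefly centrifuged.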

The target in another experiment is T2, KRAS_G12D and cRAF (Homo sapiens, UniProt P01116, G12D).
T2 construct: purchased
T2 sequence (P01116 1-188 isoform P01116-2 G12D): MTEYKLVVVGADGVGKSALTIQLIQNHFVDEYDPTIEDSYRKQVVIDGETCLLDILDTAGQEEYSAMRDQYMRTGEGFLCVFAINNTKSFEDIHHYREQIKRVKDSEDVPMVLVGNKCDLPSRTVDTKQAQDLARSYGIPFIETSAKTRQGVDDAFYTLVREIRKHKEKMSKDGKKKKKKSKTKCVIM
As to the kind of experiment: Inhibition of KRAS_G12D/cRAF binding (Cisbio binding kit, 665/615 ratio), Effect Embodiment B. Particulars: read-out: GTP-KRAS-G12D:CRAF IC50. The method, boiled down:
as §1

Another experiment addresses T3, KRAS_WT and SOS1 (Homo sapiens, UniProt P01116).
T3 construct: purchased
The experiment is described as follows: Inhibition of KRAS_WT/SOS1 binding (Cisbio binding kit, 665/615 ratio), Effect Embodiment C. Particulars: read-out: GTP-KRAS-WT:SOS1 IC50. The method, boiled down:
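Compounds tested as 3-fold, 11-point dilutions in duplicate at 1% DMSO final against the KRAS_WT/SOS1 binding system. IC50 derived by nonlinear regression fit.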

The structures appear in SMILES notation. pIC50: −log10 of the molar value. Structures can show the parent of a compound that is named as a salt.

T1 sequence (P01116 1-188 isoform P01116-2 G12D): as above
T3 sequence (P01116 1-188 isoform P01116-2): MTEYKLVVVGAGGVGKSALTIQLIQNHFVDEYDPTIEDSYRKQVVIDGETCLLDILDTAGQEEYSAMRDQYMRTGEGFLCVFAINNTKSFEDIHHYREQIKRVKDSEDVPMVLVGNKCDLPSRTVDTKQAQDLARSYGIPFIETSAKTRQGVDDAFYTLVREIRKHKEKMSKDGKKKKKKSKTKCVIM

As usually defined, the pIC50 is the negative decadic logarithm of the IC50, by convention in mol/L. For the compound `Oc1cc(Cl)c(C2CC2)c(-c2c(Cl)cc3c(N4CC5CCC(C4)N5)nc(OC[C@@]45CCCN4C[C@H](F)C5)nc3c2F)c1` (single isomer, unassigned) [Compound 198b, 3-((S or R)-4-((1R,5S)-3,8-diazabicyclo[3.2.1]octan-3-yl)-6-choro-8-fluoro-2-((2R,7aS)-2-fluorotetrahydro-1H-pyrrolin-7a(5H)-yl)methoxy)quinazolin-7-yl)-5-chloro-4-cyclopropylphenol formate], the pIC50 at KRAS-G12D and SOS1 was 7.27; on KRAS_G12D and cRAF, 7.41; on KRAS_WT and SOS1, 6.98.
For `Oc1cc(-c2c(Cl)cc3c(N4CC5CCC(C4)N5)nc(OCC45CCCN4CCC5)nc3c2F)c2ccccc2c1` (single isomer, unassigned) [Compound 199, 4-((R or S)-4-((1R,5S)-3,8-diazabicyclo[3.2.1]octan-3-yl)-6-chloro-8-fluoro-2-((tetrahydro-1H-pyrrolin-7a(5H)-yl)methoxy)quinazolin-7-yl)naphthalen-2-ol diformate] the same measures were 7.88, 8.05 and 7.23.
For `Oc1cc(-c2c(Cl)cc3c(N4CC5CCC(C4)N5)nc(OCCCN4C5COCC4C5)nc3c2F)c2ccccc2c1` (single isomer, unassigned) [Compound 200, 4-((7S or 7R)-2-(3-(3-oxa-6-azabicyclo[3.1.1]heptan-6-yl)propoxy)-4-((1R,5S)-3,8-diazabicyclo[3.2.1]octan-3-yl)-6-chloro-8-fluoroquinazolin-7-yl)naphthalen-2-ol diformate] the same measures were 7.21, 7.13 and 5.60.
On to `CCC(COc1nc(N2CC3CCC(C2)N3)c2cc(Cl)c(-c3cc(O)cc4ccccc34)c(F)c2n1)CN1C2CCC1COC2` (single isomer, unassigned) [Compound 201a, (4S or 4R)-4-(2-((2R or 2S)-2-(3-oxa-8-azabicyclo[3.2.1]octan-8-ylmethyl)butoxy)-4-((1R,5S)-3,8-diazabicyclo[3.2.1]octan-3-yl)-6-chloro-8-fluoroquinazolin-7-yl)naphthalen-2-ol formate], for which the pIC50 on KRAS-G12D and SOS1 is 7.54; at KRAS_G12D and cRAF, 7.63; at KRAS_WT and SOS1 it was 5.98.
In the same order, the values of `CCC(COc1nc(N2CC3CCC(C2)N3)c2cc(Cl)c(-c3cc(O)cc4ccccc34)c(F)c2n1)CN1C2CCC1COC2` (single isomer, unassigned) [Compound 201b, (4S or 4R)-4-(2-((2S or 2R)-2-(3-oxa-8-azabicyclo[3.2.1]octan-8-ylmethyl)butoxy)-4-((1R,5S)-3,8-diazabicyclo[3.2.1]octan-3-yl)-6-chloro-8-fluoroquinazolin-7-yl)naphthalen-2-ol formate] are 7.26, 7.34 and 5.66.
Take `C[C@H](COc1nc(N2CC3CCC(C2)N3)c2cc(Cl)c(-c3cc(O)cc4ccccc34)c(F)c2n1)CN(C)C` (single isomer, unassigned) [Compound 202, 4-((S or R)-4-((1R,5S)-3,8-diazabicyclo[3.2.1]octan-3-yl)-6-chloro-2-((S)-3-(dimethylamino)-2-methylpropoxy)-8-fluoroquinazolin-7-yl)naphthalen-2-ol diformate]: the pIC50 on KRAS-G12D and SOS1 was 7.29; on KRAS_G12D and cRAF, 6.77; at KRAS_WT and SOS1, 5.67.
`C[C@@H](COc1nc(N2CC3CCC(C2)N3)c2cc(Cl)c(-c3cc(O)cc4ccccc34)c(F)c2n1)CN(C)C` (single isomer, unassigned) [Compound 203, 4-((S or R)-4-((1R,5S)-3,8-diazabicyclo[3.2.1]octan-3-yl)-6-chloro-2-((R)-3-(dimethylamino)-2-methylpropoxy)-8-fluoroquinazolin-7-yl)naphthalen-2-ol diformate]: the pIC50 was 7.70 at KRAS-G12D and SOS1; 7.47 at KRAS_G12D and cRAF; 6.05 at KRAS_WT and SOS1.
With `Oc1cc(-c2c(Cl)cc3c(N4CC5CCC(C4)N5)nc(OCC4(CN5C6CCC5COC6)COC4)nc3c2F)c2ccccc2c1` (single isomer, unassigned) [Compound 204, 4-((7S or 7R)-2-((3-(3-oxa-8-azabicyclo[3.2.1]octan-8-ylmethyl)oxa-3-yl)methoxy)-4-((1R,5S)-3,8-diazabicyclo[3.2.1]octan-3-yl)-6-chloro-8-fluoroquinazolin-7-yl)naphthalen-2-ol ditrifluoroacetate], the pIC50 on KRAS-G12D and SOS1 is 7.11; at KRAS_G12D and cRAF it was 6.92; at KRAS_WT and SOS1 it was 5.37.
As to `C[C@@H](COc1nc(N2CC3CCC(C2)N3)c2cc(Cl)c(-c3cc(O)cc4ccccc34)c(F)c2n1)CN1C[C@@H](C)O[C@@H](C)C1` (single isomer, unassigned) [Compound 205, 4-((S or R)-4-((1R,5S)-3,8-diazabicyclo[3.2.1]octan-3-yl)-6-chloro-2-((R)-3-((2S,6R)-2,6-dimethylmorpholinyl)-2-methylpropoxy)-8-fluoroquinazolin-7-yl)naphthalenol formate], the pIC50 was 7.94 on KRAS-G12D and SOS1; 7.89 at KRAS_G12D and cRAF; 6.30 at KRAS_WT and SOS1.
With `C[C@H](COc1nc(N2CC3CCC(C2)N3)c2cc(Cl)c(-c3cc(O)cc4ccccc34)c(F)c2n1)CN1C[C@@H](C)O[C@@H](C)C1` (single isomer, unassigned) [Compound 206, 4-((S or R)-4-((1R,5S)-3,8-diazabicyclo[3.2.1]octan-3-yl)-6-chloro-2-((S)-3-((2S,6R)-2,6-dimethylmorpholinyl)-2-methylpropoxy)-8-fluoroquinazolin-7-yl)naphthalen-2-ol diformate], the pIC50 at KRAS-G12D and SOS1 is 7.34; at KRAS_G12D and cRAF it was 6.87; on KRAS_WT and SOS1 it was 5.17.
In the case of `C[C@@H]1CN(CC2(COc3nc(N4CC5CCC(C4)N5)c4cc(Cl)c(-c5cc(O)cc6ccccc56)c(F)c4n3)CC2)C[C@H](C)O1` (single isomer, unassigned) [Compound 207, 4-((S or R)-4-((1R,5S)-3,8-diazabicyclo[3.2.1]octan-3-yl)-6-chloro-2-((2S,6R)-2,6-dimethylmorpholinyl)methyl)cyclopropyl)methoxy)-8-fluoroquinazolin-7-yl)naphthalenol formate], the pIC50 was 7.94 at KRAS-G12D and SOS1; 8.14 on KRAS_G12D and cRAF; 6.71 at KRAS_WT and SOS1.
With `Oc1cc(-c2c(Cl)cc3c(N4CC5CCC(C4)N5)nc(OCC(CN4C5CCC4COC5)C4CC4)nc3c2F)c2ccccc2c1` (single isomer, unassigned) [Compound 209a, 4-((7S or 7R))-2-(2(R or S))-3-(3-oxa-8-azabicyclo[3.2.1]octan-8-yl)-2-cyclopropylpropoxy)-4-((1R,5S)-3,8-diazabicyclo[3.2.1]octan-3-yl)-6-chloro-8-fluoroquinazolin-7-yl)naphthalen-2-ol diformate], the pIC50 is 7.44 on KRAS-G12D and SOS1; 7.23 on KRAS_G12D and cRAF; 5.25 on KRAS_WT and SOS1.
For `C[C@@H](COc1nc(N2C[C@H]3CC[C@@H](C2)N3)c2cc(Cl)c(-c3cc(O)cc4ccccc34)c(F)c2n1)CN1[C@@H]2CCC[C@H]1COC2` (single isomer, unassigned) [Compound 210, (S or R) 4-(2-((R)-3-((1R,5S)-3-oxa-9-azabicyclo[3.3.1]nonan-9-yl)-2-methylpropoxy)-4-((1R,5S)-3,8-diazabicyclo[3.2.1]octan-3-yl)-6-chloro-8-fluoroquinazolin-7-yl)naphthalen-2-ol diformate], the negative logarithm of the IC50 (pIC50) at KRAS-G12D and SOS1 is 7.75; at KRAS_G12D and cRAF, 7.75; at KRAS_WT and SOS1, 5.68.
For `Oc1cc(-c2c(Cl)cc3c(N4CC5CCC(C4)N5)nc(OC[C@@]45CCCN4C[C@H](F)C5)nc3c2F)c2c(F)c(F)ccc2c1` (single isomer, unassigned) [Compound 214a, 4-((S or R)-4-((1R,5S)-3,8-diazabicyclo[3.2.1]octane-3-yl)-6-chloro-8-fluoro-2-((2R,7aS)-2-fluorotetrahydro-1H-pyrrolidin-7a (5H)-yl)methoxy)quinazolin-7-yl)-5,6-difluoronaphthalen-2-ol diformate], the negative-log IC50 (pIC50) on KRAS-G12D and SOS1 is 7.88; at KRAS_G12D and cRAF, 8.06; at KRAS_WT and SOS1, 8.10.
`CCc1c(F)ccc2cc(O)cc(-c3c(F)cc4c(N5CC6CCC(C5)N6)nc(OCCCN5C6CCC5COC6)nc4c3F)c12` (single isomer, unassigned) [Compound 215a, 4-((7S or 7R)-2-(3-(3-oxa-8-azabicyclo[3.2.1]octan-8-yl)propoxy)-4-((1R,5S)-3,8-diazabicyclo[3.2.1]octan-3-yl)-6,8-difluoroquinazolin-7-yl)-5-ethyl-6-fluoronaphthalen-2-ol diformate]: the pIC50 on KRAS-G12D and SOS1 was 7.92; at KRAS_G12D and cRAF, 8.26; on KRAS_WT and SOS1, 7.28.
For `C[C@@H](COc1nc(N2CC3CCC(C2)N3)c2cc(Cl)c(-c3cc(O)cc4ccccc34)c(F)c2n1)CN1C[C@@H](C)O[C@H](C)C1` (single isomer, unassigned) [Compound 216, 4-((S or R)-4-((1R,5S)-3,8-diazabicyclo[3.2.1]octan-3-yl)-6-chloro-2-((R)-3-((2R,6R)-2,6-dimethylmorpholinyl)-2-methylpropoxy)-8-fluoroquinazolin-7-yl)naphthalen-ol diformate] the same measures were 7.29, 7.31 and 5.69.
For the compound `CC[C@@H]1CN(CCCOc2nc(N3CC4CCC(C3)N4)c3cc(Cl)c(-c4cc(O)cc5ccccc45)c(F)c3n2)C[C@H](CC)O1` (single isomer, unassigned) [Compound 221, 4-((S or R)-4-((1R,5S)-3,8-diazabicyclo[3.2.1]octan-3-yl)-6-chloro-2-(3-((2S,6R)-2,6-diethylmorpholinyl)propoxy)-8-fluoroquinazolin-7-yl)naphthalen-2-ol formate], the negative logarithm of the IC50 (pIC50) at KRAS-G12D and SOS1 was 7.20; at KRAS_G12D and cRAF it was 6.76; on KRAS_WT and SOS1, 5.30.
